Experimental data reported in PubChem BioAssay AID2060508 (Molecular Pharmacology Branch, DTP, NCI, 2025).

Tested on: 454973-116-R2-J3-PDC spheroids, viability, % test/control
Experiment: Anticancer human tumor 454973-116-R2-J3-PDC patient-derived pancreatic carcinoma cell line growth inhibition [GQUAD]
Conditions: spheroids with HUVEC and MSC; for IC50: curve of first compound; for viability, T/C: stronger effect = lower value
Description: DNA G-quadruplex Stabilizer Agents in Combinations in Complex Spheroids
A high-throughput screen of multi-cell type tumor spheroids was designed to identify active combinations of DNA G-quadruplex stabilizer agents and targeted small molecules. Complex spheroids include a stromal component modeled by human endothelial cells (HUVEC) and fibroblasts modeled by human mesenchymal stem cells (MSCs). The concentration ranges selected for each drug and investigational agent were based upon clinically achievable concentrations if the clinical Cmax of the agent was known.
Compounds. The drugs and investigational agents: pidnarulex (CX-5461; NSC782164), APTO-253 (NSC789042), BRACO-19 (NSC847499), peposertib (NSC802822), ceralasertib (NSC780249), elimusertib (NSC800525), camonsertib (NSC841442), AZD-1390 (NSC803789), olaparib (NSC753686), talazoparib (NSC767125), ART-558 (NSC835418), sotorasib (NSC818433), MRTX-1133 (NSC836407), SN-38 (NSC673596), topotecan (NSC609699), etoposide (NSC141540), doxorubicin (NSC123127), gemcitabine (NSC613327), 5-fluorouracil (NSC19893), paclitaxel (NSC125973), vemurafenib (NSC761431), panobinostat (NSC761190), R-306465 (JNJ-16241199; NSC773264), adavosertib (NSC754352), TP-3654 (NSC805149), carboplatin (NSC241240), KSQ-4279 (NSC840948), and staurosporine (NSC755774) were obtained from the National Cancer Institute (NCI) Developmental Therapeutics Program Chemical Repository (34). The FDA-approved anticancer drug set is available from the NCI Developmental Therapeutics Program. […] The stock solutions were prepared in dimethyl sulfoxide (DMSO, Sigma-Aldrich, St. Louis, MO, cat. D2650) at 800-fold the tested concentration and stored at -70 degrees C prior to their use. All drugs and investigational agents were tested over a range starting from a high concentration at or near the clinical Cmax and decreasing in half-log increments. If the clinical Cmax for an agent had not been determined, the highest concentration tested was 10 microM.
2.3 Cell Culture. All cells were maintained in an incubator at 37 degrees C and 5% CO2 with 95% humidity. The PDC lines were cultured according to standard operating procedures established by the NCI PDMR. All PDCs were thawed and cultured in Matrigel-coated flasks prepared with a working solution of 1X Ham's F-12 nutrient mix, without supplementation (Invitrogen, cat. 11765054), 100 U/mL penicillin-streptomycin (Invitrogen, cat. 15140122), and 2.5% Matrigel (Corning Inc., cat. 354248) for the first three passages. The 857933-349-R-J2-PDC line was cultured in 6C/Colon 1B media, which includes advanced DMEM/F-12 (Thermo Fisher Scientific, cat. 12634028), 10 mM HEPES (Thermo Fisher Scientific, cat. 15630080), 1X GlutaMAX supplement (Thermo Fisher Scientific, cat. 35050061), 0.1 mg/mL primocin (InvivoGen, cat. ant-pm-2), 10% defined fetal bovine serum, heat inactivated (HyClone Laboratories Inc., cat. SH30070.03HI), 50% L-WRN conditioned media (ATCC, cat. CRL-3276), 1.25 mM N-Acetyl-L-cysteine (Sigma-Aldrich, cat. A9165), 10 mM nicotinamide (Sigma-Aldrich, cat. N0636), 1X B-27 supplement (Thermo Fisher Scientific, cat. 17504044), 1X N-2 supplement (Thermo Fisher Scientific, cat. 17502048), 10 microM Y-27632 dihydrochloride (Tocris Bioscience, cat. 1254), and 50 ng/mL human EGF recombinant protein (Thermo Fisher Scientific, cat. PHG0311). The 485176-168-R4-J1-PDC line was cultured in Panc media, which includes all 6C/Colon 1B media components plus 100 ng/mL human FGF-10 (Thermo Fisher Scientific, cat. 100-26), 500 nM SB-431542 (Selleckchem, cat. S1067), and gastrin (Tocris, cat. 3006).
[…]
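Further: spheroids exposed to compounds for seven days.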

In the case of CCc1c2c(nc3ccc(O)cc13)-c1cc3c(c(=O)n1C2)COC(=O)[C@]3(O)CC + Cc1[nH]c2ccc(F)cc2c1-c1nc2c3cccnc3c3ncccc3c2[nH]1, the IC50 (second compound 0.0316 µM) is reported as 1.53 nM, the IC50 (second compound 0.1 µM) is reported as 1.47 nM and the IC50 (second compound 0.316 µM) is reported as 1.67 nM. It also gave an IC50 (second compound 1 µM) of 1.62 nM, an IC50 (second compound 3.16 µM) of 1.34 nM and an IC50 (second compound 10 µM) of 1.54 nM. It also gave a viability, T/C (second compound 0.0316 µM, first compound 0.000999 µM) of 62.5%, a viability, T/C (second compound 0.0316 µM, first compound 0.00316 µM) of 26.2% and a viability, T/C (second compound 0.0316 µM, first compound 0.00999 µM) of 21.5%. The viability, T/C (second compound 0.0316 µM, first compound 0.0316 µM) was 14.5%, the viability, T/C (second compound 0.0316 µM, first compound 0.0999 µM) was 7.97% and the viability, T/C (second compound 0.0316 µM, first compound 0.316 µM) was 3.8%. For the same compound, the viability, T/C (second compound 0.1 µM, first compound 0.000999 µM) was 63.1%, the viability, T/C (second compound 0.1 µM, first compound 0.00316 µM) was 21.8% and the viability, T/C (second compound 0.1 µM, first compound 0.00999 µM) was 19.9%. It also gave a viability, T/C (second compound 0.1 µM, first compound 0.0316 µM) of 13%, a viability, T/C (second compound 0.1 µM, first compound 0.0999 µM) of 8.7% and a viability, T/C (second compound 0.1 µM, first compound 0.316 µM) of 3.86%. The viability, T/C (second compound 0.316 µM, first compound 0.000999 µM) was 67.5%, the viability, T/C (second compound 0.316 µM, first compound 0.00316 µM) was 25.7% and the viability, T/C (second compound 0.316 µM, first compound 0.00999 µM) was 19.2%. The viability, T/C (second compound 0.316 µM, first compound 0.0316 µM) was 14.6%, the viability, T/C (second compound 0.316 µM, first compound 0.0999 µM) was 7.62% and the viability, T/C (second compound 0.316 µM, first compound 0.316 µM) was 3.05%. For the same compound, the viability, T/C (second compound 1 µM, first compound 0.000999 µM) was 67.3%, the viability, T/C (second compound 1 µM, first compound 0.00316 µM) was 22.5% and the viability, T/C (second compound 1 µM, first compound 0.00999 µM) was 22%. It also gave a viability, T/C (second compound 1 µM, first compound 0.0316 µM) of 13.3%, a viability, T/C (second compound 1 µM, first compound 0.0999 µM) of 7.87% and a viability, T/C (second compound 1 µM, first compound 0.316 µM) of 5.39%. For the same compound, the viability, T/C (second compound 3.16 µM, first compound 0.000999 µM) was 59.1%, the viability, T/C (second compound 3.16 µM, first compound 0.00316 µM) was 21.1% and the viability, T/C (second compound 3.16 µM, first compound 0.00999 µM) was 21.8%. The viability, T/C (second compound 3.16 µM, first compound 0.0316 µM) was 15.2%, the viability, T/C (second compound 3.16 µM, first compound 0.0999 µM) was 8.28% and the viability, T/C (second compound 3.16 µM, first compound 0.316 µM) was 5.63%. For the same compound, the viability, T/C (second compound 10 µM, first compound 0.000999 µM) was 63.6%, the viability, T/C (second compound 10 µM, first compound 0.00316 µM) was 25.6% and the viability, T/C (second compound 10 µM, first compound 0.00999 µM) was 18.2%. For the same compound, the viability, T/C (second compound 10 µM, first compound 0.0316 µM) was 14.2%, the viability, T/C (second compound 10 µM, first compound 0.0999 µM) was 8.05% and the viability, T/C (second compound 10 µM, first compound 0.316 µM) was 3.9%.
